System: 379773-124-R-J2-PDC spheroid viability
Assay: Anticancer human tumor 379773-124-R-J2-PDC patient-derived endometrial carcinoma cell line growth inhibition [POLQ]
Conditions: spheroids with HUVEC and MSC; for IC50: curve of first compound; for viability, T/C: stronger effect = lower value
Experimental: Multicellular complex tumor spheroid response to Polymerase (POL) inhibitors (novobiocin, ART-558, RP6685) in combination with a variety of drugs and investigational agents in selected tumor cell lines
The POL inhibitors (novobiocin, ART-558, and RP6685) were evaluated both individually and in combination with standard of care and investigational anticancer small molecules within a complex spheroid model of solid tumors. . Complex spheroids include a stromal component modeled by human endothelial cells (HUVEC) and fibroblasts modeled by human mesenchymal stem cells (MSCs). The concentration ranges selected for each drug and investigational agent were based upon clinically achievable concentrations if the clinical Cmax of the agent was known.
Compounds. The drugs and investigational agents: novobiocin (NSC847541), ART-558 (NSC835418), RP-6685 (NSC848927), peposertib (NSC802822), ceralasertib (NSC780249), elimusertib (NSC800525), camonsertib (NSC841442), AZD-1390 (NSC803789), olaparib (NSC753686), talazoparib (NSC767125), rucaparib (NSC756644), sotorasib (NSC818433), MRTX-1133 (NSC836407), SN-38 (NSC673596), topotecan (NSC609699), epotoside (NSC141540), doxorubicin (NSC123127), gemcitabine (NSC613327), 5-fluorouracil (NSC19893), paclitaxel (NSC125973), vemurafenib (NSC761431), MSA-2 (NSC828583), SN-011 (NSC837082), adavosertib (NSC754352), prexasertib (NSC758257), carboplatin (NSC241240) and oxaliplatin (NSC266046), were obtained from the National Cancer Institute (NCI) Developmental Therapeutics Program Chemical Repository (21). The FDA-approved anticancer drug set is available from the Developmental Therapeutics Program at https://dtp.cancer.gov/organization/dscb/obtaining/. […] The stock solutions were prepared in dimethyl sulfoxide (DMSO, Sigma-Aldrich, St. Louis, MO, cat. D2650), except for the platinum compounds which were prepared in saline (Quality Biological, Gaithersburg, MD, cat. 114-055-101), at 800-fold the tested concentration and stored at -70 degrees C prior to their use. All drugs and investigational agents were tested over a range starting from a high concentration at or near the clinical Cmax and decreasing in half-log increments. If the clinical Cmax for an agent had not been determined, the highest concentration tested was 10 microM, except for SN-38, which was tested at a high concentration of 1 microM.
Cell Culture. All cells were maintained in an incubator at 37 degrees C and 5% CO2 with 95% humidity. The PDC lines were cultured according to standard operating procedures established by the NCI PDMR (https://pdmr.cancer.gov). Table 3 of the manuscript, lists the cell lines along with the number of the three cell types plated to form the mct-spheroids and media for tumor cell growth. After thawing, all PDC lines, except 997537-175-T-J1-PDC and 415267-285-R-J2-PDC, were cultured in Matrigel-coated flasks prepared with a working solution of 1X Ham's F-12 nutrient mix, without supplementation (Thermo Fisher Scientific, cat. 11765054), 100 U/mL penicillin-streptomycin (Thermo Fisher Scientific, cat. 15140122), and 2.5% Matrigel (Corning Inc., Corning, NY, cat. 354248) for the first three passages. The two PDC lines 997537-175-T-J1-PDC and 415267-285-R-J2-PDC were cultured on uncoated flasks. The 857933-349-R-J2-PDC line was cultured in 6C/Colon 1B media containing advanced DMEM/F-12 (Thermo Fisher Scientific, cat. 12634028), 10 mM HEPES (Thermo Fisher Scientific, cat. 15630080), 1X GlutaMAX supplement (Thermo Fisher Scientific, cat. 35050061), 0.1 mg/mL primocin (InvivoGen, San Diego, CA, cat. ant-pm-2), 10% defined fetal bovine serum, heat inactivated (HyClone Laboratories Inc., Logan, UT, cat. SH30070.03HI), 50% L-WRN conditioned media (ATCC, cat. CRL-3276), 1.25 mM N-Acetyl-L-cysteine (Sigma-Aldrich, cat. A9165), 10 mM nicotinamide (Sigma-Aldrich, cat. N0636), 1X B-27 supplement (Thermo Fisher Scientific, cat. 17504044), 1X N-2 supplement (Thermo Fisher Scientific, cat. […]
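Also: spheroids exposed to drugs for seven days before readout.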
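For viability, T/C in this document: percent viability relative to DMSO vehicle control taken as 100%.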

O=C(c1cc(Cc2n[nH]c(=O)c3ccccc23)ccc1F)N1CCN(C(=O)C2CC2)CC1 + COC1C(OC(N)=O)C(O)C(Oc2ccc3c(O)c(NC(=O)c4ccc(O)c(CC=C(C)C)c4)c(=O)oc3c2C)OC1(C)C
IC50 (second compound 0.0316 µM): 6.65 µM | IC50 (second compound 0.1 µM): 9.68 µM | IC50 (second compound 0.316 µM): 8.28 µM | IC50 (second compound 1 µM): 7.63 µM | IC50 (second compound 3.16 µM): 9.21 µM | IC50 (second compound 10 µM): 9.44 µM | viability, T/C (second compound 0.0316 µM, first compound 0.0316 µM): 87.3% | viability, T/C (second compound 0.0316 µM, first compound 0.1 µM): 80.7% | viability, T/C (second compound 0.0316 µM, first compound 0.316 µM): 88.5% | viability, T/C (second compound 0.0316 µM, first compound 1 µM): 82.4% | viability, T/C (second compound 0.0316 µM, first compound 3.16 µM): 71.2% | viability, T/C (second compound 0.0316 µM, first compound 10 µM): 38.2% | viability, T/C (second compound 0.1 µM, first compound 0.0316 µM): 92.5% | viability, T/C (second compound 0.1 µM, first compound 0.1 µM): 76.6% | viability, T/C (second compound 0.1 µM, first compound 0.316 µM): 86.9% | viability, T/C (second compound 0.1 µM, first compound 1 µM): 81.4% | viability, T/C (second compound 0.1 µM, first compound 3.16 µM): 88.1% | viability, T/C (second compound 0.1 µM, first compound 10 µM): 48.9% | viability, T/C (second compound 0.316 µM, first compound 0.0316 µM): 82.4% | viability, T/C (second compound 0.316 µM, first compound 0.1 µM): 91.8% | viability, T/C (second compound 0.316 µM, first compound 0.316 µM): 88.1% | viability, T/C (second compound 0.316 µM, first compound 1 µM): 85.8% | viability, T/C (second compound 0.316 µM, first compound 3.16 µM): 74.8% | viability, T/C (second compound 0.316 µM, first compound 10 µM): 44.7% | viability, T/C (second compound 1 µM, first compound 0.0316 µM): 85.1% | viability, T/C (second compound 1 µM, first compound 0.1 µM): 80% | viability, T/C (second compound 1 µM, first compound 0.316 µM): 78.3% | viability, T/C (second compound 1 µM, first compound 1 µM): 84.4% | viability, T/C (second compound 1 µM, first compound 3.16 µM): 72.2% | viability, T/C (second compound 1 µM, first compound 10 µM): 42.8% | viability, T/C (second compound 3.16 µM, first compound 0.0316 µM): 80.2% | viability, T/C (second compound 3.16 µM, first compound 0.1 µM): 82.8% | viability, T/C (second compound 3.16 µM, first compound 0.316 µM): 76.5% | viability, T/C (second compound 3.16 µM, first compound 1 µM): 73.2% | viability, T/C (second compound 3.16 µM, first compound 3.16 µM): 73.3% | viability, T/C (second compound 3.16 µM, first compound 10 µM): 48% | viability, T/C (second compound 10 µM, first compound 0.0316 µM): 70.5% | viability, T/C (second compound 10 µM, first compound 0.1 µM): 78.8% | viability, T/C (second compound 10 µM, first compound 0.316 µM): 74.1% | viability, T/C (second compound 10 µM, first compound 1 µM): 72.7% | viability, T/C (second compound 10 µM, first compound 3.16 µM): 73.5% | viability, T/C (second compound 10 µM, first compound 10 µM): 48.8%

Source: PubChem BioAssay AID1963848 (Molecular Pharmacology Branch, DTP, NCI, 2024)
